# Measured values: US10004809B2, “Precise delivery of therapeutic agents to cell mitochondria for anti-cancer therapy” (UNIVERSITY OF GEORGIA RESEARCH FOUNDATION, INC., priority 2013, dated 2018)
# Key:
# PC3 cells [1] = experiment: Annexin V/PI apoptosis detection by flow cytometry; assay type: cell-based, Human; details: 50 μM
# Experimental: In order to determine whether the enhanced activity of MITO-DCA upon targeting this compound to the mitochondria of cells was due to apoptosis rather than necrosis, an ALEXA FLUOR™ 488-Annexin-V and propidium iodide (PI) cell staining in PC3 and MSC cells was carried out and data were analyzed using flow cytometry (FIG. 4B). As controls, etoposide treated cells were used as early apoptosis population and H2O2 treated cells were marked as late apoptotic or necrotic population. […] There were no late apoptotic or necrotic cells observed with these compounds.
# PC3 and MSC cells were seeded at a density of 1×10^6 cells/mL on each well of a six well plate and allowed to grow overnight. Cells were treated with 50 μM Na-DCA, 150 μM TPP-DCA, and 150 μM MITO-DCA for 12 h at 37° C. As positive controls, etoposide (100 μM, incubation time: 12 h) for apoptosis and H2O2 (1 mM, incubation time: 45 min) for necrosis were used. The cells were trypsinized, repeatedly washed, and centrifuged at 1,800 RPM for 3 min, and the supernatants were discarded. Cell density was determined and cells were resuspended in 1× annexin-binding buffer to ˜1×10^6 cells/mL preparing a sufficient volume to have 100 µL per assay. To 100 μL of cell suspension, 5 μL ALEXA FLUOR™ 488 annexin V and 1 µL 100 μg/mL PI working solution were added and incubated for 15 min at room temperature. After the incubation period, 400 μL 1× annexin-binding buffer was added to each sample, samples were gently mixed keeping the samples on ice and the samples were analyzed on the flow cytometer immediately.
# PC3 cells [2] = experiment: Intracellular lactate determination; assay type: cell-based, Human; details: 6 h
# Excerpt: Cytosolic metabolism of glucose to pyruvate occurs before its entry into mitochondria for oxidative phosphorylation. However, if not metabolized through oxidative phosphorylation as found in cancer, pyruvate gets converted by lactate dehydrogenase through glycolysis to lactate. Glycolysis in the absence of oxidative phosphorylation in cancer causes rise in lactate concentration. To test the ability of MITO-DCA to switch glucose metabolism from glycolysis to oxidative phosphorylation in cancer cells, intracellular lactate levels in glycolytic PC3 cells were measured and compared the value with those observed in less glycolytic LNCaP and normal MSC cells (FIG. 5A). To understand the importance of mitochondria targeting ligand and to explore the importance of a Tris platform to increase number of DCA molecule per targeting ligand, the parent drug Na-DCA and TPP-DCA were used as controls. Treatment of PC3 cells with 50 μM of MITO-DCA for 6 h reduced the intracellular lactate levels by 58±5%. […] Pronounced lactate concentration differences were observed between […] glycolytic PC3 and healthy MSC cells (FIG. 5A). […] None of the DCA compounds has any effect on the lactate levels in MSC cells (FIG. 5A).
# PC3, LNCaP, and MSC cells were seeded at a density of 1×10^6 cells/mL on each well of a 12 well plate and allowed to grow overnight at 37° C. under 5% CO2. Cells were treated with 150 μM Na-DCA, 150 μM TPP-DCA, and 50 μM MITO-DCA for 6 h at 37° C. After 6 h, the media was removed and the cells were homogenized. The lysate was added to the enzyme and substrate working reagent mixture and incubated for 30 min. Lactate concentration was measured using Bio-Tek Synergy HT microplate reader at 450 nm and comparing to a standard curve.
smiles,measurement,setting,value
O=C(CCCCC[P+](c1ccccc1)(c1ccccc1)c1ccccc1)NC(COC(=O)C(Cl)Cl)(COC(=O)C(Cl)Cl)COC(=O)C(Cl)Cl.[Br-] [MITO-DCA],Apoptosis (annexin V/PI),PC3 cells [1],complete early apoptosis
same,Reduction of intracellular lactate levels,PC3 cells [2]; 50 μM,58±5%
O=C(OCCC[P+](c1ccccc1)(c1ccccc1)c1ccccc1)C(Cl)Cl.[Br-] [TPP-DCA],Reduction of intracellular lactate levels,PC3 cells [2]; 150 μM,30±2%
